Data published in PubChem BioAssay AID504882 (Broad Institute, 2011).
Records with an inconclusive call do not appear. Active and inactive are the calls of the source. How the calls were made is not given here.

Test system: EBV lymphoblastoid cells (LCL) viability, plate reader
Assay: cytotoxicity in EBV lymphoblastoid cells, dose response, cytotoxicity control, cell-based, plate reader, cherry-picks, set 2 (AID 504882)

For `COc1ccccc1/C=C/C(=O)c1ccc(Cl)cc1`, the AC50 was > 19.5 µM (inactive).
Work on `CC(=NNC(=S)N1CCN(c2ccccn2)CC1)c1nccs1` yielded an AC50 of 0.429 µM.
`CCn1c2ccccc2c2cc(/C=N/NC(=O)c3ccncc3)ccc21` showed an AC50 of 3.31 µM.
`CCCCC(=O)NC(c1ccc(OC)cc1)c1ccc2cccnc2c1O` (stereo not drawn) was tested, and the AC50 was 17.7 µM.
Work on `CCOc1cccc(/C=N/Nc2ccc(S(=O)(=O)N(CC)CC)cn2)c1O` yielded an AC50 of 1.79 µM.
`Cc1cc(C)nc(SCc2ccc(C(=O)N/N=C/c3cccc(O)c3O)cc2)n1` showed an AC50 of 10.9 µM.
With `C=C1C(=O)C2=CC1CCC(=O)C1(C)CCC(OC(C)=O)C(C)(C)C1CC2O` (stereo not drawn) the AC50 was 5.14 µM.
With `CC1(C)N=C(N)N=C(N)N1c1ccc(CCCCc2ccccc2)cc1` the AC50 was 0.991 µM.
`Clc1ccc(SCc2cc(N3CCOCC3)nc(-c3ccccn3)n2)cc1` showed an AC50 of 4.05 µM.
`CC(C)OC(=O)c1ccc(NCc2cc(O)ccc2O)cc1Cl` gave an AC50 of 5.06 µM.
`CCCc1c(C(=O)N/N=C(\C)c2ccccn2)nnn1-c1nonc1N` showed an AC50 of 1.57 µM.
`N#Cc1c(Oc2ccc3ccccc3c2)sc(C(=O)c2ccccc2)c1N` showed an AC50 of 20 µM.
For `CCNC(=S)NNC(=O)c1cc(-c2ccc(OCC)cc2)nc2ccccc12`, the AC50 was 7.85 µM.
In the case of `CCN(CC)C(=O)c1ccc(NC(=O)Nc2ccccc2F)cc1`, the AC50 is reported as 2.63 µM.
`COc1ccccc1-c1nnc(Sc2nc([N+](=O)[O-])nn2C)o1` showed an AC50 of 8.25 µM.
`Fc1ccc2[nH]c3c(N4CCSCC4)ncnc3c2c1` was tested, and the AC50 was 17.5 µM.
For `Cc1ccc(C(=O)N/N=C/c2c(O)ccc3ccccc23)cn1`, the AC50 was 17 µM.
`COc1ccc(-c2ccc(NC(=O)c3ccco3)cc2)nn1` showed an AC50 of 4.42 µM.
For `CC(=O)NC(c1ccc2ccccc2c1)c1ccc2cccnc2c1O` (stereo not drawn), the AC50 was 1.93 µM.
Molecule `CCC(=O)NC(c1cc(Cl)c2cccnc2c1O)C(C)C` (stereo not drawn) has an AC50 of 6.78 µM.
In the case of `COc1cccc(N=Nc2ccc(O)c3ncccc23)c1`, the AC50 is reported as 2.18 µM.
`COc1ccc(CNC(=O)N2[C@H]3CC[C@@H]2C=C(c2ccc(F)cc2OCc2ccccc2)C3)cc1OC` gave an AC50 of 2.3 µM.
Molecule `CC(=O)OC1CCC2(C)C(CCC3C4CC=C(C(C)=O)C4(C)OC(=O)CC32)C1` (stereo not drawn) has an AC50 of 3.85 µM.
For `CS(=O)(=O)c1ncc(Cl)c(C(=O)Nc2ccc(OC(F)F)cc2)n1`, the AC50 was 4.53 µM.
`Cc1csc(N=Nc2ccc(N(C)C)cc2)[n+]1[O-]` showed an AC50 of 7.33 µM.
`S=C1SCN(Cc2ccco2)CN1Cc1ccco1` showed an AC50 of 15.8 µM.
Molecule `CNc1cccnc1C=NNC(N)=S` has an AC50 of 7.97 µM.
For `NC(=S)NN=Cc1nccc2c(C(F)(F)C(F)(F)C(F)(F)F)cccc12`, the AC50 was 0.452 µM.
For `COc1ccc(OCc2cccc(C(=O)NN)c2)cc1`, the AC50 was > 19.5 µM (inactive).
With `COc1cc(C=C2CCCC(=Cc3ccc(OCC4CO4)c(OC)c3)C2=O)ccc1OCC1CO1` (stereo not drawn) the AC50 was 5.45 µM.
With `Cc1ccc2[nH]c3c(c2c1)CCCC3NC(=O)CCl` (stereo not drawn) the AC50 was 1.41 µM.
In the case of `Oc1c(N=NC(=S)Nc2ccccc2F)c2ccccc2n1Cc1cccc(Cl)c1`, the AC50 is reported as > 19.5 µM (inactive).
In the case of `CCN1CCN(Cc2ccc(NC(=O)c3ccc(C)c(NC(=O)c4c[nH]c5cc(C(F)(F)F)ccc5c4=O)c3)cc2C(F)(F)F)CC1`, the AC50 is reported as 3.95 µM.
`CCCCC(=O)NC(c1cccc([N+](=O)[O-])c1)c1ccc2cccnc2c1O` (stereo not drawn) was tested, and the AC50 was 5.14 µM.
For `CCNc1ccc(Br)cc(C(=O)/C=C/c2c(Cl)cccc2Cl)c1=O`, the AC50 was 13.8 µM.
For `Cc1ccc(/C=N/NC(=O)c2cc(-c3ccccc3)nc3ccccc23)o1`, the AC50 was > 19.5 µM (inactive).
In the case of `C=CCNC(=S)N/N=C(\C)c1ccccn1`, the AC50 is reported as 0.13 µM.
For `COc1ccc(Cn2c(SCc3cc(C)ccc3C)nc3cc(OC)c(OC)cc3c2=N)cc1`, the AC50 was 6.5 µM.
`COc1ccc(C(=O)NC(=S)NNC(=O)c2ccc3ccccc3n2)cc1` showed an AC50 of 3.69 µM.
Work on `c1ccc(-c2nc(-c3ccccn3)no2)cc1` yielded an AC50 of 9.22 µM.
For `COc1ccc(/C=C/c2nc3ccccc3n2C)cc1`, the AC50 was 3.28 µM.
In the case of `CCc1ccc(Nc2n[n+](-c3ccccc3)c(-c3c(Cl)cccc3Cl)s2)cc1`, the AC50 is reported as 15 µM.
`O=C(NC(c1ccc(Cl)cc1)c1cc(Cl)c2cccnc2c1O)c1cccnc1` (stereo not drawn) gave an AC50 of 4.72 µM.
For `COc1ccc(C=C2CS(=O)(=O)CC(=Cc3ccc(OC)cc3)C2=O)cc1`, the AC50 was 0.675 µM.
Work on `O=c1c2c(nc3c(-c4ccc(Cl)cc4)c[nH]n13)CCCC2` yielded an AC50 of 2.44 µM.
For `O=c1[nH]c(=O)n([C@H]2C[C@H](O)[C@@H](CO)O2)cc1C(F)(F)F`, the AC50 was 1.51 µM.
For `COc1ccccc1-c1nc(-c2ccccn2)no1`, the AC50 was 10.8 µM.
In the case of `COc1cccc(/C=N/NC(=O)c2[nH]nc3c2CCc2ccccc2-3)c1O`, the AC50 is reported as 4.51 µM.
Molecule `Oc1cccc2ccc(Nc3ccccn3)nc12` has an AC50 of 6.35 µM.
`CCCCC(=O)NC(c1ccc(Cl)cc1Cl)c1ccc2cccnc2c1O` (stereo not drawn) showed an AC50 of 2.55 µM.
`CN1C(=O)N(C)c2ccc(C=O)c3cccc1c23` was tested, and the AC50 was 5.99 µM.
For `O=C(N/N=C/c1sc2ccccc2c1O)c1cccc2ccccc12`, the AC50 was 1.71 µM.
`O=C(CCc1ccccc1)NC(c1cccs1)c1cc(Cl)c2cccnc2c1O` (stereo not drawn) showed an AC50 of 7.03 µM.
Work on `O=C(Oc1c(Cl)cc(Cl)c2cccnc12)c1cccc([N+](=O)[O-])c1` yielded an AC50 of 18.8 µM.
`O=C(CCl)N(c1ccc(Cl)cc1)c1c[nH]c2ccccc12` was tested, and the AC50 was 3.35 µM.
With `CC1=C(C(=O)OCc2ccc3c(c2)OCO3)C(c2ccc(Cl)cc2)NC(=O)N1` (stereo not drawn) the AC50 was 0.379 µM.
Molecule `Cc1oc2c(c1C(=O)c1ccc(Cl)cc1)C(=O)C(=O)c1ccccc1-2` has an AC50 of 5.51 µM.
With `C#CCN(C[C@@H]1[C@@H](OC(=O)NCCCCCC)[C@@H](OC(=O)NCCCCCC)Cn2c(=O)ccc(=O)n21)S(=O)(=O)c1ccc(C)cc1` the AC50 was 3.98 µM.
Work on `CCN(CC)S(=O)(=O)c1cccc(NC(=O)Nc2cccc(C(F)(F)F)c2)c1` yielded an AC50 of 9.7 µM.
Molecule `Cc1nc2c(-c3ccc(Cl)cc3)c(C)[nH]n2c(=O)c1Cc1ccccc1` has an AC50 of 6.96 µM.
Molecule `Oc1cccc(C(Nc2nccs2)c2ccc3cccnc3c2O)c1` (stereo not drawn) has an AC50 of 11.4 µM.
`O=C(NC(Nc1nc2ccc([N+](=O)[O-])cc2s1)(C(F)(F)F)C(F)(F)F)c1ccccc1` was tested, and the AC50 was 0.298 µM.
Work on `O=Cc1ccc(-c2cccs2)s1` yielded an AC50 of 11.8 µM.
With `CCOC(=O)c1c2c(n(C)c1C)C(=O)C(=O)c1ccc(Br)cc1-2` the AC50 was 1.95 µM.
Work on `O=C(Nc1nc(-c2ccccn2)cs1)c1ccc(Cl)s1` yielded an AC50 of 1.34 µM.
Work on `COc1nc(Nc2nc3ccccc3c(=O)[nH]2)nc2ccc(C)cc12` yielded an AC50 of 2.23 µM.
With `COc1ccc(N/N=C/c2c(C(=O)O)ccc3ccccc23)cc1` the AC50 was 3.99 µM.
For `C(=Cc1cnc2ccccc2n1)c1ccc2c(c1)OCO2`, the AC50 was 6.12 µM.
Work on `S=C(NN=Cc1ccccn1)Nc1ccccn1` yielded an AC50 of 9.02 µM.
`COc1ccc(O)c(/C=N/NC(=O)c2ccc(OCc3cccc(Br)c3)cc2)c1` was tested, and the AC50 was 4.03 µM.
`COc1ccc(-n2nc(C(=O)c3cccs3)cc(-c3nc4ccccc4[nH]3)c2=N)cc1` gave an AC50 of 8.9 µM.
With `C[n+]1c2n(c3ccccc31)N=C(c1cc(C(C)(C)C)c(O)c(C(C)(C)C)c1)CS2` the AC50 was 7.62 µM.
`COc1ccc(/C=N/Nc2cc(C)nc3ccc(OC)cc23)c(OC)c1` showed an AC50 of 3.47 µM.
In the case of `Oc1ccc(C=NNc2ccccn2)c(O)c1`, the AC50 is reported as 16.2 µM.
Work on `C#CCN(C[C@@H]1[C@@H](OC(=O)NCc2ccccc2F)[C@@H](OC(=O)NCc2ccccc2F)Cn2c(=O)ccc(=O)n21)S(=O)(=O)c1ccc(C)cc1` yielded an AC50 of 3.8 µM.
Molecule `CC(C)C(=O)NC(c1ccc(Cl)cc1Cl)c1ccc2cccnc2c1O` (stereo not drawn) has an AC50 of 2.28 µM.
For `CCCC(=O)NC(c1ccc(C(C)C)cc1)c1ccc2cccnc2c1O` (stereo not drawn), the AC50 was 1.74 µM.
Molecule `O=C(/C=C/c1ccco1)Oc1cc(Br)cc(/C=N/NC(=O)c2ccccc2O)c1` has an AC50 of 6.29 µM.
Work on `Cc1ccc2[nH]c(C(=O)N/N=C/c3ccccc3O)c(C)c2c1` yielded an AC50 of 3.05 µM.
Work on `Cc1cc(=O)[nH]c(N=N/C(=N/Nc2ccccc2C)c2ccccc2)n1` yielded an AC50 of 8.28 µM.
Molecule `C=CCn1c(O)c(N=NC(=S)Nc2ccccc2F)c2ccccc21` has an AC50 of 10.2 µM.
`C=CCn1c(O)c(N=NC(=S)Nc2cccc(C)c2)c2ccccc21` gave an AC50 of 2.48 µM.
`NC(=S)N/N=C/c1ncc(C(F)(F)F)cc1Cl` showed an AC50 of 10.6 µM.
In the case of `O=S(=O)(c1ccccc1)N1CCN(c2cc(-c3ccccc3)nc3ncnn23)CC1`, the AC50 is reported as > 19.5 µM (inactive).
In the case of `CCn1c2ccccc2c2cc(/C=N/n3c(C)nnc3C)ccc21`, the AC50 is reported as > 19.5 µM (inactive).
Molecule `N#CC(C#N)=NNc1ccc(-n2ccc(C(F)(F)F)n2)cc1` has an AC50 of 2.53 µM.
For `Cc1cc(N/N=C\c2ccc(Br)cc2)nc(-n2nc(C)cc2C)n1`, the AC50 was 4.81 µM.
`Cc1ccc2[nH]c3c(N4CCN(Cc5ccccc5)CC4)ncnc3c2c1` was tested, and the AC50 was 10.6 µM.
With `CCCCCCc1cc2cc(-c3nnc(-c4ccccc4)o3)c(=O)oc2cc1O` the AC50 was 9.34 µM.
`CCN(CC)c1ccc(/C=N/NC(=O)c2ccc3nc[nH]c3c2)c(O)c1` was tested, and the AC50 was 4.14 µM.
For `CCOC(=O)c1cnc(-n2nc(C)cc2C)nc1NNc1cc(C)nc(-c2ccccc2)n1`, the AC50 was 3.73 µM.
Work on `CC(=NNc1nc2ccccc2o1)c1ncccn1` yielded an AC50 of 0.384 µM.
Work on `CC(=NNC(=S)N1CCCC1)c1ccccn1` yielded an AC50 of 0.037 µM.
